According to patent publication US12391692B2, “Spiro ring-containing quinazoline compound” (WIGEN BIOMEDICINE TECHNOLOGY (SHANGHAI) CO., LTD., priority 2020, dated 2025):

Assays:
[1] = test system: H358 cells; assay: Antiproliferative activity against H358 cells (Cell Titer Glow, ultra-low attachment plate); type: cell-based; settings: Homo sapiens, NCI-H358, 72 h, three days after addition of compound
Method: 2500 H358 cells were seeded in a 96-well ultra-low attachment plate (corning, 7007). After one day of growth, a serially diluted compound (a maximum concentration of 5 μM, 5-fold dilution, a total of five doses) was added. Three days after the addition of the compound, Cell Titer Glow (Promega, G9681) was added to evaluate pellet growth, and the IC50 value was calculated.

[2] = test system: pERK level in H358 cells; assay: pERK and ERK protein content assay in H358 cells (ELISA); type: cell-based; settings: Homo sapiens, NCI-H358, pERK/ERK ratio vs DMSO group, compound 1 μM, 24 h, read-out: Inhibition rate (%)
Method: H358 cells were seeded in a 24-well plate. After one day of growth, a test compound (at a concentration of 1 μM) was added. After 24 h of action of the compound, the cells were lysed, and the cell lysate was transferred to a 96-well ELISA plate. The levels of pERK and ERK in the lysate were measured using an ELISA kit (abcam 176660). The ratio of pERK to ERK was calculated and compared with that of the DMSO group, and the percentage of inhibition of pERK activity by the compound was calculated.

Row | SMILES | IC50 [1] | inhibition at 1 µM [2]
1 | C=CC(=O)N1CC2(CCN(c3nc(N4CC5(CCCCN5C)C4)nc4c(OCC(F)(F)F)c(-c5c(C)ccc6[nH]ncc56)c(C5CC5)cc34)CC2)C1 [Compound 75] | 300 to 1000 nM | 50 to 90%
2 | C=CC(=O)N1CC2(CCN(c3nc(N4CC(CC#N)(n5ccnc5)C4)nc4c(OCC(F)(F)F)c(-c5c(C)ccc6[nH]ncc56)c(C5CC5)cc34)CC2)C1 [Compound 57] | 300 to 1000 nM | 50 to 90%
3 | C=CC(=O)N1CC2(CCN(c3nc(N4CC(C(=O)N5CC6(CN(C)C6)C5)C4)nc4c(OCC(F)(F)F)c(-c5c(C)ccc6[nH]ncc56)c(C5CC5)cc34)CC2)C1 [Compound 48] | 300 to 1000 nM | 50 to 90%
4 | C=CC(=O)N1CC2(CCN(c3nc(N4CC5(CN(CCOC)CCO5)C4)nc4c(OCC(F)(F)F)c(-c5c(C)ccc6[nH]ncc56)c(C5CC5)cc34)CC2)C1 [Compound 82] | < 300 nM | > 90%
5 | C=CC(=O)N1CC2(CCN(c3nc(N4CCC(N5CC6(CC6)C5)CC4)nc4c(OCC(F)(F)F)c(-c5c(C)ccc6[nH]ncc56)c(C5CC5)cc34)CC2)C1 [Compound 38] | 300 to 1000 nM | > 90%
6 | C=CC(=O)N1CC2(CCN(c3nc(N4CCC5(CCCN5CCOC)CC4)nc4c(OCC(F)(F)F)c(-c5c(C)ccc6[nH]ncc56)c(C5CC5)cc34)CC2)C1 [Compound 80] | 300 to 1000 nM | 50 to 90%
7 | C=CC(=O)N1CC2(CCN(c3nc(N4CC5(CCCN5C)C4)nc4c(OCC(F)(F)F)c(-c5c(C)ccc6[nH]ncc56)c(C5CC5)cc34)CC2)C1 [Compound 73] | < 300 nM | > 90%
8 | C=CC(=O)N1CC2(CCN(c3nc(N4CC5(C4)CC(F)(F)CN5C)nc4c(OCC(F)(F)F)c(-c5c(C)ccc6[nH]ncc56)c(C5CC5)cc34)CC2)C1 [Compound 129] | < 300 nM | > 90%
9 | C=CC(=O)N1CC2(CCN(c3nc(N4CC5(CC(OC)CN5CC)C4)nc4c(OCC(F)(F)F)c(-c5c(C)ccc6[nH]ncc56)c(C5CC5)cc34)CC2)C1 (stereo not shown) [Compound 124] | < 300 nM | > 90%
10 | C=CC(=O)N1CC2(CCN(c3nc(N4CC(OC5CCC5)C4)nc4c(OCC(F)(F)F)c(-c5c(C)ccc6[nH]ncc56)c(C5CC5)cc34)CC2)C1 [Compound 13] | < 300 nM | > 90%
11 | C=CC(=O)N1CC2(CCN(c3nc(N4CC(N(C)CCCO)C4)nc4c(OCC(F)(F)F)c(-c5c(C)ccc6[nH]ncc56)c(C5CC5)cc34)CC2)C1 [Compound 23] | < 300 nM | > 90%
12 | C=CC(=O)N1CC2(CCN(c3nc(N4CC(N5CC6(CC6)C5)C4)nc4c(OCC(F)(F)F)c(-c5c(F)cccc5F)c(C5CC5)cc34)CC2)C1 [Compound 113] | 300 to 1000 nM | 50 to 90%
13 | C=CC(=O)N1CC2(CCN(c3nc(O[C@H]4C[C@H](N(C)C)C4)nc4c(OCC(F)(F)F)c(-c5c(C)ccc6[nH]ncc56)c(C5CC5)cc34)CC2)C1 [Compound 86] | 300 to 1000 nM | 50 to 90%
14 | C=CC(=O)N1CC2(CCN(c3nc(N4CC(N5CC6(CC6)C5)C4)nc4c(OCC(F)(F)F)c(-c5c(C)ccc6[nH]cnc56)c(C5CC5)cc34)CC2)C1 [Compound 107] | < 300 nM | > 90%
15 | C=CC(=O)N1CC2(CCN(c3nc(O[C@H]4C[C@@H](N(C)C)C4)nc4c(OCC(F)(F)F)c(-c5c(C)ccc6[nH]ncc56)c(C5CC5)cc34)CC2)C1 [Compound 85] | < 300 nM | > 90%
16 | C=CC(=O)N1CC2(CCN(c3nc(N4CC(N5CC6(CC6)C5)C4)nc4c(OCC)c(-c5c(C)ccc6[nH]ncc56)c(C5CC5)cc34)CC2)C1 [Compound 97] | < 300 nM | > 90%
17 | C=CC(=O)N1CC2(CCN(c3nc(N4CC5(CCCN5C)C4)nc4c(OCC(F)(F)F)c(-c5c(C)ccc6[nH]ncc56)c(C=C)cc34)CC2)C1 [Compound 131] | < 300 nM | > 90%
18 | C=CC(=O)N1CC2(CCN(c3nc(N4CC5(C=CCN5C)C4)nc4c(OCC(F)(F)F)c(-c5c(C)ccc6[nH]ncc56)c(C5CC5)cc34)CC2)C1 [Compound 127] | < 300 nM | > 90%
19 | C=CC(=O)N1CC2(CCN(c3nc(N4CC(N5CC6(CCC6)C5)C4)nc4c(OCC(F)(F)F)c(-c5c(C)ccc6[nH]ncc56)c(C5CC5)cc34)CC2)C1 [Compound 29] | < 300 nM | > 90%
20 | C=CC(=O)N1CC2(CCN(c3nc(N4CC(N5CC6(CC6)C5)C4)nc4c(OCC(F)(F)F)c(-c5cc(O)cc6ccccc56)c(C5CC5)cc34)CC2)C1 [Compound 111] | 300 to 1000 nM | > 90%
21 | C=CC(=O)N1CC2(CCN(c3nc(N4CC(n5cncn5)C4)nc4c(OCC(F)(F)F)c(-c5c(C)ccc6[nH]ncc56)c(C5CC5)cc34)CC2)C1 [Compound 42] | > 1000 nM | 50 to 90%
22 | C=CC(=O)N1CC2(CCN(c3nc(N4CC(OC5CC5)C4)nc4c(OCC(F)(F)F)c(-c5c(C)ccc6[nH]ncc56)c(C5CC5)cc34)CC2)C1 [Compound 12] | < 300 nM | > 90%
23 | C=CC(=O)N1CC2(CCN(c3nc(N4CC5(CCN5C)C4)nc4c(OCC(F)(F)F)c(-c5c(C)ccc6[nH]ncc56)c(C5CC5)cc34)CC2)C1 [Compound 67] | < 300 nM | > 90%
24 | C=CC(=O)N1CC2(CCN(c3nc(N4CC(CC#N)(N5CCOCC5)C4)nc4c(OCC(F)(F)F)c(-c5c(C)ccc6[nH]ncc56)c(C5CC5)cc34)CC2)C1 [Compound 56] | < 300 nM | > 90%
25 | C=CC(=O)N1CC2(CCN(c3nc(N4CC(N5CC6(CC6)C5)C4)nc4c(O[C@@H](C)C(F)(F)F)c(-c5c(C)ccc6[nH]ncc56)c(C5CC5)cc34)CC2)C1 [Compound 99] | < 300 nM | > 90%
26 | C=CC(=O)N1CC2(CCN(c3nc(N4CC(OCC5CC5)C4)nc4c(OCC(F)(F)F)c(-c5c(C)ccc6[nH]ncc56)c(C5CC5)cc34)CC2)C1 [Compound 17] | < 300 nM | > 90%
27 | C=CC(=O)N1CC2(CCN(c3nc(O[C@H]4C[C@@H](N5CCC5)C4)nc4c(OCC(F)(F)F)c(-c5c(C)ccc6[nH]ncc56)c(C5CC5)cc34)CC2)C1 [Compound 87] | < 300 nM | > 90%
28 | C=CC(=O)N1CC2(CCN(c3nc(N4CC(N5CC6(CC6)C5)C4)nc4c(OCC(F)(F)F)c(-c5c(C)ccc6[nH]nc(C)c56)c(C5CC5)cc34)CC2)C1 [Compound 106] | < 300 nM | > 90%

More lines, main results first:

Row | IC50 [1] | SMILES | inhibition at 1 µM [2]
29 | < 300 nM | C=CC(=O)N1CC2(CCN(c3nc(N4CC5(CCN5CC5CC5)C4)nc4c(OCC(F)(F)F)c(-c5c(C)ccc6[nH]ncc56)c(C5CC5)cc34)CC2)C1 [Compound 69] | > 90%
30 | < 300 nM | C=CC(=O)N1CC2(CCN(c3nc(N4CC5(CCCCN5CCOC)C4)nc4c(OCC(F)(F)F)c(-c5c(C)ccc6[nH]ncc56)c(C5CC5)cc34)CC2)C1 [Compound 76] | > 90%
31 | < 300 nM | C=CC(=O)N1CC2(C1)CN(c1nc(N3CC(N4CC5(CC5)C4)C3)nc3c(OCC(F)(F)F)c(-c4c(C)ccc5[nH]ncc45)c(C4CC4)cc13)C2 [Compound 101] | > 90%
32 | < 300 nM | C=CC(=O)N1CC2(CCN(c3nc(N4CC(N5CC6(COC6)C5)C4)nc4c(OCC(F)(F)F)c(-c5c(C)ccc6[nH]ncc56)c(C5CC5)cc34)CC2)C1 [Compound 30] | > 90%
33 | < 300 nM | C=CC(=O)N1CC2(CCN(c3nc(N4CCC5(CCCN5C)CC4)nc4c(OCC(F)(F)F)c(-c5c(C)ccc6[nH]ncc56)c(C5CC5)cc34)CC2)C1 [Compound 79] | > 90%
34 | < 300 nM | C=CC(=O)N1CC2(CCN(c3nc(N4CC5(C=CCN5CC)C4)nc4c(OCC(F)(F)F)c(-c5c(C)ccc6[nH]ncc56)c(C5CC5)cc34)CC2)C1 [Compound 128] | > 90%
35 | < 300 nM | C=CC(=O)N1CC2(CCN(c3nc(N4CCC(N5CC6(CC6)C5)C4)nc4c(OCC(F)(F)F)c(-c5c(C)ccc6[nH]ncc56)c(C5CC5)cc34)CC2)C1 (stereo not shown) [Compound 37] | > 90%
36 | < 300 nM | C=CC(=O)N1CC2(CCN(c3nc(N4CC(N5CC6(CSC6)C5)C4)nc4c(OCC(F)(F)F)c(-c5c(C)ccc6[nH]ncc56)c(C5CC5)cc34)CC2)C1 [Compound 31] | > 90%
37 | < 300 nM | C=CC(=O)N1CC2(CCN(c3nc(N4CC(N5CC6(CC6)C5)C4)nc4c(OCC(F)(F)F)c(-c5c(O)cccc5F)c(C5CC5)cc34)CC2)C1 [Compound 112] | > 90%
38 | < 300 nM | C=CC(=O)N1CC2(CCN(c3nc(N4CC(N(CC)CCCO)C4)nc4c(OCC(F)(F)F)c(-c5c(C)ccc6[nH]ncc56)c(C5CC5)cc34)CC2)C1 [Compound 24] | > 90%
39 | < 300 nM | C=CC(=O)N1CC2(CCN(c3nc(O[C@H]4C[C@@H](N5CCCC5)C4)nc4c(OCC(F)(F)F)c(-c5c(C)ccc6[nH]ncc56)c(C5CC5)cc34)CC2)C1 [Compound 89] | > 90%
40 | < 300 nM | C=CC(=O)N1CC2(CCN(c3nc(N4CC(N5CC6(CC6)C5)C4)nc4c(OCC(F)(F)F)c(-c5c(F)ccc6[nH]cnc56)c(C5CC5)cc34)CC2)C1 [Compound 108] | > 90%
41 | < 300 nM | C=CC(=O)N1CC2(CCN(c3nc(N4CCC(CC#N)(N5CCC5)CC4)nc4c(OCC(F)(F)F)c(-c5c(C)ccc6[nH]ncc56)c(C5CC5)cc34)CC2)C1 [Compound 58] | > 90%
